Counter-ions that a name gives are not always drawn. Marks after values point to notes of the source that are not given here.
Experiments:
[1] = system: male Ross 308 chicks; assay: Carcass traits (breast weight, breast meat yield, abdominal fat pad weight); assay type: in vivo, broiler chicks; details: for Breast weight: bone-in; for Breast weight / Breast meat yield / Fat pad weight: phytase 500 FTU/kg, betaine 2.75 g/kg
Experimental: (§1) The composition and nutrient specifications of the three basal starter (1-16 days post-hatch) and finisher (17-37 days post-hatch) diets are shown in Table 1. An NSP-degrading enzyme (Econase XT) was included across all the wheat-based diets to reflect standard practice and the finisher diets contained 20 g/kg Celite as an acid insoluble ash dietary marker. The starter diets were fed as mash, while the finisher diets were steam-pelleted at a conditioning temperature of 85° C. The NC1 diets were the ‘phytase-modified’ diets with formulated with reductions of 1.4 g/kg Ca and 1.5 g/kg P in the starter diets, which mainly stemmed from the elimination of dicalcium phosphate. The corresponding reductions in the finisher diets were 1.2 g/kg Ca and 1.4/kg P. The NC2 diets were the ‘betaine-modified’ diets in which energy density, methionine and choline levels were reduced mainly by lower inclusion levels of canola oil and synthetic methionine and the elimination of choline chloride relative to the PC diets. The energy densities were reduced from 12.55 to 12.24 MJ/kg in the starter diets and from 12.97 to 12.66 MJ/kg in the finisher diets. Methionine levels were reduced from 4.44 to 3.19 g/kg in the starter diets and from 4.18 to 2.93 g/kg in the finisher diets. Exogenous phytase (Quantum® Blue; AB Vista) was included in the relevant diets at 100 g per tonne or 500 FTU/kg phytase activity and, similarly, betaine HCl (Hi Beta″, 970 g/kg betaine hydrochloride; Rural Chemical Industries) was included in the diets at 2.75 g/kg.
(§2) The parameters evaluated included growth performance (weight gains, feed intakes, feed conversion ratios; FCR) from 1 to 16, 17 to 37 and 1 to 37 days post-hatch, 1 to 37 days weight gain-corrected FCR, mortality/cull rates, percentage toe ash, nitrogen (N) excretion and nutrient utilisation. Nutrient utilisation included apparent metabolisable energy (AME), expressed as both MJ/kg and MJ/day, N retention and N-corrected AME (AMEn). Also, breast weights in absolute and relative (% yield) terms, abdominal fat pad weights and pH of gizzard contents were determined. However, for reasons of practical expediency, absolute breast weights were determined on a ‘bone-in’ basis from birds that had not been de-feathered and this approach inflates both the absolute weight and yield; nevertheless, the data remains indicative. The experimental data was obtained and calculated via standard procedures followed by the Poultry Research Foundation. While the various procedures are not detailed in this report the majority of them have been described in detail (Selle et al., 2003b) previously.
(§3) The experimental data was statistically analysed as a 3×2×2 factorial array of dietary treatments. That is diet type (PC, NC1, NC2), without and with the addition of phytase, without and with the addition of betaine HCl. Each of the 12 dietary treatments was offered to 8 replicate cages of 6 birds or a total of 96 cages and 576 birds (male Ross 308 chicks). The IBM® SPSS® Statistics 20 program was used to analyse experimental data and the study complied with specific guidelines of the Animal Ethics Committee of Sydney University.

[2] = system: male Ross 308 chicks; assay: Mortality/cull rates to 37 days post-hatch; details: phytase 500 FTU/kg, betaine 2.75 g/kg
Experimental: as §1, §2
The experimental data was statistically analysed as a 3×2×2 factorial array of dietary treatments. […]

[3] = system: male Ross 308 chicks; assay: N excretion during total excreta collection period; assay type: in vivo, broiler chicks; details: for N excretion: total excreta collection period, phytase 500 FTU/kg, betaine 2.75 g/kg
Experimental: as §1, §2, §3

[4] = system: male Ross 308 chicks; assay: Growth performance of broilers (weight gain, feed intake, feed conversion); assay type: in vivo, broiler chicks; details: for Feed efficiency: feed conversion ratio; for Feed efficiency / Feed intake / Weight gain / Gain-corrected FCR: phytase 500 FTU/kg, betaine 2.75 g/kg
Experimental: as §1, §2, §3

[5] = main effect across diets, hydrochloride
[6] = main effect across diets, listed as Betaine HCl, hydrochloride
[7] = main effect across diets, listed as betaine HCl, hydrochloride
[8] = NC1 diets, 1 to 16 days post-hatch
[9] = NC1 diets, 1 to 37 days post-hatch
[10] = NC1 diets, 17 to 37 days post-hatch
[11] = NC2 diets, 1 to 16 days post-hatch
[12] = NC2 diets, 1 to 37 days post-hatch
[13] = NC2 diets, 17 to 37 days post-hatch
[14] = PC diets, 1 to 16 days post-hatch
[15] = PC diets, 1 to 37 days post-hatch
[16] = PC diets, 17 to 37 days post-hatch
[17] = main effect across diets, 1 to 16 days post-hatch
[18] = main effect across diets, 1 to 37 days post-hatch
[19] = main effect across diets, 17 to 37 days post-hatch
[20] = main effect, 17 to 37 days (finisher phase)

## C[N+](C)(C)CC(=O)O [Betaine, betaine hydrochloride]
[1]; NC1 diets
  Breast weight: 526 g/bird
  Breast meat yield: 25.7%
  Fat pad weight: 14.7 g/bird
[1]; NC2 diets
  Breast weight: 625 g/bird
  Breast meat yield: 26.9%
  Fat pad weight: 18.4 g/bird
[1]; PC diets
  Breast weight: 660 g/bird
  Breast meat yield: 28.3%
  Fat pad weight: 17.3 g/bird
[1]; across diet types
  Breast meat yield, phytase x betaine interaction mean: 27.0%
  Fat pad weight, phytase x betaine interaction mean: 16.8 g/bird
[1]; in the absence of phytase
  Decrease in fat pad weights by betaine HCl: 17.6%
[1]; in the presence of phytase
  Increase in fat pad weights by betaine HCl: 8.67%
[1]; main effect
  Increase in breast meat yield (relative): 1.91%
  Increase in breast yield: 0.5 percentage units
[1]; [5]
  Breast weight: 624 g/bird
  Breast meat yield: 26.7^b %
  Fat pad weight: 19.1 g/bird
[1]; main effect across diets, listed as betaine, hydrochloride
  Breast weight: no influence
[1]; [6]
  Breast meat yield: 26.7%
[1]; [7]
  Breast meat yield: 26.7%
  Fat pad weight: no effect
[2]; NC1 diets
  Mortality and cull rates: 4.18%
[2]; NC2 diets
  Mortality and cull rates: 6.25%
[2]; PC diets
  Mortality and cull rates: 4.18%
[2]; main effect across diets
  Mortality and cull rates: 4.17%
[3]; NC1 diets
  N excretion: 37.30 g/bird
[3]; NC2 diets
  Reduction of N excretion versus NC2 control diets: 7.03%
  N excretion: 42.47 g/bird
[3]; PC diets
  N excretion: 40.34 g/bird
[3]; main effect
  Reduction of N excretion: 7.69%
[3]; [5]
  N excretion: 38.79^a g/bird
[3]; [6]
  N excretion: 38.79 g/bird
[3]; [7]
  N excretion: 38.79 g/bird
[4]; 1 to 37 days, across diet types
  Weight gain, phytase x betaine interaction mean: 2202 g/bird
[4]; 17 to 37 days, across diet types
  Weight gain, phytase x betaine interaction mean: 1797 g/bird
[4]; 17 to 37 days, betaine HCl alone, across diet types
  Depression of weight gain versus non-supplemented diets: 7.70%
[4]; [8]
  Feed efficiency: 1.414
  Feed intake: 556 g/bird
  Weight gain: 395 g/bird
[4]; NC1 diets, 1 to 37 days
  Weight gain, two-way interaction mean (diet type x additive): 2437 g/bird
  Gain-corrected FCR: 1.858 g/g
[4]; [9]
  Feed efficiency: 1.732
  Feed intake: 3478 g/bird
  Weight gain: 2012 g/bird
[4]; NC1 diets, 1 to 37 days, two-way interaction
  Increase in weight gain on addition to diet: 0.61%
[4]; NC1 diets, 17 to 37 days
  Weight gain, two-way interaction mean (diet type x additive): 1737 g/bird
[4]; [10]
  Feed efficiency: 1.811
  Feed intake: 2923 g/bird
  Weight gain: 1618 g/bird
[4]; [11]
  Feed efficiency: 1.394
  Feed intake: 523 g/bird
  Weight gain: 377 g/bird
[4]; [12]
  Feed efficiency: 1.641
  Feed intake: 3728 g/bird
  Weight gain: 2272 g/bird
[4]; NC2 diets, 1 to 37 days
  Gain-corrected FCR: 1.663 g/g
[4]; NC2 diets, 1 to 37 days, two-way interaction
  Depression of weight gain on addition to diet: 5.29%
[4]; [13]
  Feed efficiency: 1.691
  Feed intake: 3205 g/bird
  Weight gain: 1896 g/bird
[4]; NC2 diets, 17 to 37 days, two-way interaction
  Depression of weight gain on addition to diet: 6.27%
[4]; [14]
  Feed efficiency: 1.334
  Feed intake: 591 g/bird
  Weight gain: 444 g/bird
[4]; [15]
  Feed efficiency: 1.601
  Feed intake: 3714 g/bird
  Weight gain: 2321 g/bird
[4]; PC diets, 1 to 37 days
  Gain-corrected FCR: 1.604 g/g
[4]; PC diets, 1 to 37 days, two-way interaction
  Depression of weight gain on addition to diet: 4.90%
[4]; [16]
  Feed efficiency: 1.665
  Feed intake: 3123 g/bird
  Weight gain: 1878 g/bird
[4]; PC diets, 17 to 37 days, two-way interaction
  Depression of weight gain on addition to diet: 6.35%
[4]; main effect across diets, 1 to 16 days post-hatch, hydrochloride
  Feed efficiency: 1.380^b
[4]; main effect across diets, 1 to 16 days post-hatch, listed as Betaine HCl, hydrochloride
  Feed efficiency: 1.380
[4]; [17]
  Feed intake: 567 g/bird
  Weight gain: 413 g/bird
[4]; main effect across diets, 1 to 37 days post-hatch, hydrochloride
  Feed efficiency: 1.647
[4]; main effect across diets, 1 to 37 days post-hatch, listed as betaine HCl, hydrochloride
  Feed efficiency: no significant impact
[4]; [18]
  Feed intake: 3756 g/bird
  Weight gain: 2288 g/bird
[4]; main effect across diets, 1 to 37 days, hydrochloride
  Gain-corrected FCR: 1.663^a g/g
[4]; main effect across diets, 1 to 37 days, listed as betaine HCl, hydrochloride
  Gain-corrected FCR: 1.663 g/g
[4]; main effect across diets, 17 to 37 days post-hatch, hydrochloride
  Feed efficiency: 1.707^b
[4]; main effect across diets, 17 to 37 days post-hatch, listed as betaine HCl, hydrochloride
  Feed efficiency: 1.707
[4]; [19]
  Feed intake: 3189 g/bird
  Weight gain: 1875^a g/bird
[4]; main effect, 1 to 37 days
  Depression of gain-corrected FCR: 3.42%
[4]; [20]
  Depression of feed efficiency: 2.46%
  Depression of weight gain: 4.48%
[4]; main effect, entire feeding period
  Depression of growth rates: 3.38%
[4]; main effect, starter phase, 1 to 16 days post-hatch
  Improvement in feed efficiency (FCR): 3.77%
